Experimental findings from ChEMBL document CHEMBL4715760, “Balancing potency, metabolic stability and permeability in pyrrolopyrimidine-based EGFR inhibitors” (Eur J Med Chem, 2016) are described below.

Data set [1] is described as follows: Apparent permeability from basolateral to apical side in human Caco2 cells at 10 uM measured for 120 mins by LC-MS/MS analysis. Particulars: Caco-2. (In general: Passage across Caco-2 layers is used to estimate intestinal permeability.)
Data set [2] addresses Inhibitor of nuclear factor kappa-B kinase subunit beta (Homo sapiens) (UniProt O14920). The data set is described as follows: Inhibition of recombinant human full-length GST-tagged IKBKB expressed in baculovirus expression system at 500 nM using Ser/Thr 05 as substrate incubated for 1 hr in presence of ATP at its Km concentration by Z'-LYTE assay relative to control.

The Papp B→A is the apparent permeability from the basolateral to the apical side of a cell layer. In general, inhibition refers to the drop in the measured response relative to a control, in per cent.

Inhibitor of nuclear factor kappa-B kinase subunit beta (Homo sapiens), sequence (O14920 whole entry): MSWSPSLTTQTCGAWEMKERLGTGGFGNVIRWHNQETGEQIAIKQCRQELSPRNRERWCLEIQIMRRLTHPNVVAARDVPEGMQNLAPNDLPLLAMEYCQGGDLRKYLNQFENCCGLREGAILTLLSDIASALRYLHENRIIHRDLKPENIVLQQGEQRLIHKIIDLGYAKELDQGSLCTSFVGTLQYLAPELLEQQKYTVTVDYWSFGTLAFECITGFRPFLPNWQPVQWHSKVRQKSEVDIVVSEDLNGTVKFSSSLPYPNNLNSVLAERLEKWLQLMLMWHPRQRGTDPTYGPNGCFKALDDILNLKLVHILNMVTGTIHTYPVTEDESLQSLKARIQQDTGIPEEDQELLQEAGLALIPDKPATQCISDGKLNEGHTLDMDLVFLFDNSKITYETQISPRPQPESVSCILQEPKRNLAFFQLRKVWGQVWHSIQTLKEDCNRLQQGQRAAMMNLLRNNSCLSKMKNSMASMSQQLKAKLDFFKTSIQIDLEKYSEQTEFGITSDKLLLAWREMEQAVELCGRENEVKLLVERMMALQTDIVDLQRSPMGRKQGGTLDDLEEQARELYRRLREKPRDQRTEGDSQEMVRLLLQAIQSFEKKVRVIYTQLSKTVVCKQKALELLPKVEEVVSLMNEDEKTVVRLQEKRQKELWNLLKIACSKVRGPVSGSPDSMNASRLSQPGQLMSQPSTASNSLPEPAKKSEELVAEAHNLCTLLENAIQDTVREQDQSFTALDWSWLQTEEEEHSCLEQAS

For the molecule `C#Cc1cccc(Nc2ncnc3cc(OCCOC)c(OCCOC)cc23)c1` [ERLOTINIB], the Papp B→A at 2 h, 10 µM in data set [1] is 31 ×10⁻⁶ cm/s. The inhibition in data set [2] was -5%.
